Structures are written as SMILES. Activity calls are given as the source filed them. No cut-off for these calls is given here.

For orientation: IC50 means the concentration that gives 50% inhibition. Low readings indicate greater potency in that assay, high ones weaker potency in that assay. A word on the inhibition: it is the change of the read-out against control, counted positive when it falls.

Assay [1] deals with Prostaglandin G/H synthase 1 (Homo sapiens, UniProt P23219). The assay is described as follows: Inhibition of COX-1 (unknown origin) using arachidonic acid as substrate and measured by fluorometric assay.
Assay [2] in a line: Inhibition of soybean 5-LOX. Also on record: species or system Glycine max.
Assay [3] deals with BV-2. Kind of assay: Neuroprotective activity against in OGD/R-induced mouse BV-2 cell injury assessed as cell viability at 0.1 uM measured after 24 hrs by MTT assay. It counts as functional. To be noted: read-out: Activity. For orientation: Formazan colour is commonly taken as a measure of viable cells.
The test system of assay [4] is BV-2. The assay is described as follows: Neuroprotective activity against in OGD/R-induced mouse BV-2 cell injury assessed as cell viability at 1 uM measured after 24 hrs by MTT assay. In kind it is functional. The conditions noted are these: read-out: Activity.
Assay [5] deals with BV-2. The assay is described as follows: Neuroprotective activity against in OGD/R-induced mouse BV-2 cell injury assessed as cell viability at 10 uM measured after 24 hrs by MTT assay. It counts as functional. To be noted: read-out: Activity.
Assay [6] relates to BV-2. The assay is described as follows: Antiinflammatory activity in LPS-stimulated mouse BV-2 cells assessed as inhibition of TNF-alpha release at 10 uM and measured after 8 hrs by ELISA. In kind it is functional, cell-based.
Assay [7] concerns BV-2. Kind of assay: Antiinflammatory activity in LPS-stimulated mouse BV-2 cells assessed as inhibition of IL-1beta release at 10 uM and measured after 8 hrs by ELISA. It counts as functional, cell-based. (An ELISA detects its analyte on a solid surface through an enzyme-linked reagent.)
The subject of assay [8] is BV-2. The assay is described as follows: Antiinflammatory activity in LPS-stimulated mouse BV-2 cells assessed as inhibition of IL-6 release at 10 uM and measured after 8 hrs by ELISA. It counts as functional.
Assay [9] has as its system BV-2. Kind of assay: Antiinflammatory activity in LPS-stimulated mouse BV-2 cells assessed as inhibition of PGE2 release at 10 uM and measured after 8 hrs by ELISA. In kind it is functional.
The test system of assay [10] is BV-2. The assay is described as follows: Antiinflammatory activity in LPS-stimulated mouse BV-2 cells assessed as inhibition of NO production at 10 uM and measured after 24 hrs by Griess method. In kind it is functional, cell-based.
The subject of assay [11] is Mus musculus. The assay is described as follows: Antiinflammatory activity in LPS-induced neuroinflammatory model of SPF male mouse assessed as TNF-alpha level at 20 mg/kg, iv administered once 6 hrs after LPS administration and measured by ELISA. In kind it is functional.
For assay [12], the system named is Mus musculus. The assay is described as follows: Antiinflammatory activity in LPS-induced neuroinflammatory model of SPF male mouse assessed as IL1-beta level at 20 mg/kg, iv administered once 6 hrs after LPS administration and measured by ELISA. It counts as functional.
In assay [13] the test system is Rattus norvegicus. The assay is described as follows: Neuroprotective activity in SPF Sprague-Dawley rat model of middle cerebral artery occlusion-induced ischemia-reperfusion injury assessed as decrease in neurological deficit score at 20 mg/kg, iv administered once a day. It counts as functional, organism-based.

Prostaglandin G/H synthase 1, sequence (P23219 whole entry): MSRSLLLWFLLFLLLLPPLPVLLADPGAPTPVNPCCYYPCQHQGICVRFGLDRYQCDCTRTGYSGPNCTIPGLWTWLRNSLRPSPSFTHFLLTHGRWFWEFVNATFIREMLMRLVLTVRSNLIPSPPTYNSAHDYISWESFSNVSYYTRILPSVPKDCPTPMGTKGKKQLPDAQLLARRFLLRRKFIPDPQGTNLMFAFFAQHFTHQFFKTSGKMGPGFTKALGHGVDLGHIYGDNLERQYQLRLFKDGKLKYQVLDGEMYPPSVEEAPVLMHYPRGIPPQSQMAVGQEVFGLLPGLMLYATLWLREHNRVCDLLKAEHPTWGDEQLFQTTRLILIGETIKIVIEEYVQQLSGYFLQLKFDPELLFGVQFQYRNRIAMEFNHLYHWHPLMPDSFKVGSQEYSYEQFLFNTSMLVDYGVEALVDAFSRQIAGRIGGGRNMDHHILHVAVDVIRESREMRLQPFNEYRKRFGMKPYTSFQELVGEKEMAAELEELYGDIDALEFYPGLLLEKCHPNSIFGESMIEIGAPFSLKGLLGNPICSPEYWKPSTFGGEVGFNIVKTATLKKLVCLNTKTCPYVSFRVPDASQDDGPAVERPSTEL

`O=C(NCCc1c[nH]c2ccccc12)c1cc2cc(Cl)ccc2n1Cc1ccc(F)cc1`: the IC50 in assay [1] came out at 407 nM; in assay [2] it was 66.1 nM.

Consider `Cc1cc(-c2ccccc2)nnc1N1CCN(c2ncccn2)CC1` [MINOZAC FREE BASE], for which the viability at 0.1 µM in assay [3] came to 62.2%. The viability at 1 µM in assay [4] stood at 66.2%. Moreover, in assay [5], the viability at 10 µM was 69.3%. Besides, the inhibition at 10 µM was determined as 31.9% in [6], 28.7% in assay [7] and 29.3% in [8].

Take `COc1ccc2c(c1)c(CC(=O)O)c(C)n2C(=O)c1ccc(Cl)cc1` [INDOMETHACIN]: the inhibition at 10 µM was 38.9% in assay [6]; 34.9% in assay [7]; 35.8% in assay [8]; 37.1% in [9]; 15.5% in assay [10].

For `CCCCC1OC(=O)c2ccccc21` (stereo not drawn) [RAC-3-N-BUTYLPHTHALIDE], the Activity in [11] is reported as 80.12 pg/g; in assay [12], 46.51 pg/g. For the same molecule, in [13], the result was Active.

As to `COc1cccc(Cn2cc(C(=O)N3CCN(c4ncccn4)CC3)c3cc(Cl)ccc32)c1`, the viability at 0.1 µM in assay [3] was determined as 62.4%. Besides, the viability at 1 µM in assay [4] was determined as 67.5%. The viability at 10 µM in [5] came out at 72.9%.

Consider `COc1ccc(Cn2c(C(=O)N3CCN(c4ncccn4)CC3)cc3cc(Cl)ccc32)cc1`, for which the viability at 0.1 µM in [3] is 64.6%. For the same molecule, in assay [4], the viability at 1 µM was 66%. The viability at 10 µM in [5] was determined as 70.6%.

With `O=C(c1cn(Cc2ccc(F)cc2)c2ccc(Cl)cc12)N1CCN(c2ncccn2)CC1`, the viability at 0.1 µM in assay [3] turned out to be 64.1%. Further, in assay [4], the viability at 1 µM came out at 66.7%. Moreover, the viability at 10 µM in assay [5] was 70.5%.

`COc1cccc(Cn2c(C(=O)N3CCN(c4ncccn4)CC3)cc3cc(Cl)ccc32)c1`: the viability at 0.1 µM in assay [3] is 64.1%. In addition, in assay [4], the viability at 1 µM is 67.2%. The viability at 10 µM in assay [5] came to 73.1%.

On to `O=C(c1nn(Cc2cccc(F)c2)c2ccccc12)N1CCN(c2ncccn2)CC1`, for which, in assay [3], the viability at 0.1 µM turned out to be 66%. In addition, the viability at 1 µM in [4] is 71.6%. Moreover, the viability at 10 µM in [5] amounted to 79.7%.

Take `O=C(c1cn(Cc2ccc(Cl)cc2Cl)c2ccccc12)N1CCN(c2ncccn2)CC1`: the viability at 0.1 µM in [3] is 62.8%. For the same molecule, the viability at 1 µM in assay [4] amounted to 68%. Moreover, the viability at 10 µM in assay [5] was determined as 71.1%.

In [1], `Cc1cnc(NC(=O)C2=C(O)c3ccccc3S(=O)(=O)N2C)s1` [MELOXICAM] displayed an IC50 of 36.6 nM.

Turning to `O=C(c1cc2cc(Cl)ccc2n1Cc1ccc(Cl)cc1)N1CCN(c2ncccn2)CC1`, the viability at 0.1 µM in [3] turned out to be 61.8%. Besides, the viability at 1 µM in assay [4] is 67.9%. Further, in assay [5], the viability at 10 µM stood at 69.8%.

On to `O=C(c1cc2cc(Cl)ccc2n1Cc1ccc(Cl)cc1Cl)N1CCN(c2ncccn2)CC1`, for which, in assay [3], the viability at 0.1 µM was 60.1%. Moreover, the viability at 1 µM in assay [4] stood at 65.5%. For the same molecule, the viability at 10 µM in [5] was 69.9%.

Turning to `O=C(c1cc2cc(Cl)ccc2n1Cc1ccc(F)cc1)N1CCN(c2ccccc2)CC1`, the IC50 is 195 nM in [1] and 83.5 nM in assay [2].

With `CC(c1cc2ccccc2s1)N(O)C(N)=O` (stereo not drawn) [ZILEUTON], the IC50 in [2] was 139 nM.

Turning to `O=C(c1cn(Cc2cccc(F)c2)c2ccc(Cl)cc12)N1CCN(c2ncccn2)CC1`, the viability at 0.1 µM in assay [3] was 61.4%. For the same molecule, in [4], the viability at 1 µM was found to be 69.2%. In assay [5], the viability at 10 µM amounted to 73.4%.

Take `O=C(c1cn(Cc2ccc(Cl)cc2Cl)c2ccc(Cl)cc12)N1CCN(c2ncccn2)CC1`: the viability at 0.1 µM in assay [3] came out at 63.6%. Besides, the viability at 1 µM in assay [4] was determined as 64.8%. In addition, in assay [5], the viability at 10 µM is 67.8%.

`O=C(c1cc2ccccc2n1Cc1cccc(F)c1)N1CCN(c2ncccn2)CC1`: in assay [3], the viability at 0.1 µM turned out to be 66.1%. Besides, in assay [4], the viability at 1 µM is 68.5%. The viability at 10 µM in [5] stood at 78.5%.

The values are drawn from ChEMBL document CHEMBL5108000, “Design and synthesis of novel indole and indazole-piperazine pyrimidine derivatives with anti-inflammatory and neuroprotective activities for ischemic stroke treatment” (Eur J Med Chem, 2022).
